Where two headings read alike, the source gives them in different places.
Molecular target: CYP3A4 (Homo sapiens, UniProt P08684)
Assay: inhibition of testosterone metabolism in Caco-2/TC7 cells (HPLC)
Assay type: cell-based
[1] = read-out: % inhibition at 10 μM

Chain of CYP3A4 (P08684 2-503): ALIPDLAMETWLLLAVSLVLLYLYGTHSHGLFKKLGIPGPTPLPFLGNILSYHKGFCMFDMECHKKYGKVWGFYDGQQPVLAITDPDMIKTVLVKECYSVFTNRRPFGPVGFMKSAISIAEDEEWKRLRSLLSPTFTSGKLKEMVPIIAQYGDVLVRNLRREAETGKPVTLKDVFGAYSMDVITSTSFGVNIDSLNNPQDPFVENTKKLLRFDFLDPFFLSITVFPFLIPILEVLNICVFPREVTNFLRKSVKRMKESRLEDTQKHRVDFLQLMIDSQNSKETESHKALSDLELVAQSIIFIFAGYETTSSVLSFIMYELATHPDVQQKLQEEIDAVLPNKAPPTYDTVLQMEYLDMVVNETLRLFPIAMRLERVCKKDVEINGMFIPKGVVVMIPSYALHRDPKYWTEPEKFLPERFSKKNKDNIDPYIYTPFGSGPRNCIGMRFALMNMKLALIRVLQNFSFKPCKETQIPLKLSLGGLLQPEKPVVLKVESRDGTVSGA

Row | SMILES | inhibition at 10 µM [1] [%] | inhibition at 10 µM [%]
1 | CC(=O)Oc1ccc(/C=C/c2cc(O)cc(OC(C)=O)c2)cc1 [DAR, 3,4′-acetoxy-5-hydroxy-stilbene] | 45 | –
2 | CC(=O)Oc1ccc(/C=C/c2cc(O)cc(O)c2)cc1 [MAR, 4′-acetoxy-3,5-hydroxy-stilbene] | 24 | –
3 | CC(=O)Oc1ccc(/C=C/c2cc(OC(C)=O)cc(OC(C)=O)c2)cc1 [TAR, 3,4′,5-acetoxystilbene] | 10 | –
4 | CC(=O)N1CCN(c2ccc(OC[C@H]3COC(Cn4ccnc4)(c4ccc(Cl)cc4Cl)O3)cc2)CC1 (some centres unmarked) [ketoconazole, reference compound] | – | ~80
5 | Oc1ccc(/C=C/c2cc(O)cc(O)c2)cc1 [resveratrol, trans-3,4′,5-trihydroxystilbene] | > 80 | –
